Structures can show the parent of a compound that is named as a salt. Where two headings read alike, the source gives them in different places.

A short description of one data set: solubility in water. The source says:
System 10 houses in depot 14 from about 1 to 40 weight percent of pilocarpine solute and from 1 to 25 weight percent of epinephrine solute, with the remaining weight percent of system 10 polymer 12. […] Generally, the pilocarpine solute and the epinephrine solute will have a particle size of about 0.1 to 100 microns, and a presently preferred particle size of about 0.5 to 20 microns. The osmotic delivery device consisting of sole drug solute of a specific particle size dispersed in a polymer is the invention of Michaels and Guillod as disclosed and claimed in copending U.S. Patent Application Ser. No. 855,605, filed on Nov. 29, 1977. This application and the copending application are both assigned to the Alza Corporation of Palo Alto, California.
Next, the contents of the bowl are removed, cut into 3 mm ×3 mm pieces with a multi-blade strip die and the strips fed to the hopper of an extruder. The pieces have a residence time of 5 minutes in the extruder with the screw of the extruder rotating at 20 rpm. A film is extruded through a 12 mil opening at the end of the extruder and punched into 13.5×5.8 mm inserts.

A short description of data set [1]: osmotic pressure (vapor pressure osmometer). The format is physicochemical. The source says:
System 10 houses in depot 14 from about 1 to 40 weight percent of pilocarpine solute and from 1 to 25 weight percent of epinephrine solute, with the remaining weight percent of system 10 polymer 12. […] Generally, the pilocarpine solute and the epinephrine solute will have a particle size of about 0.1 to 100 microns, and a presently preferred particle size of about 0.5 to 20 microns. […] This application and the copending application are both assigned to the Alza Corporation of Palo Alto, California.
The osmotic pressure, ATM, of the above solutes can be measured in a commercially available osmometer that measures the vapor pressure difference between pure water and the solution containing a solute to be analyzed, and according to standard thermodynamic principles, the vapor pressure ratio is converted into osmotic pressure difference.

The term solubility denotes the concentration that dissolves in the medium under given conditions. In the case of `CNC[C@H](O)c1ccc(O)c(O)c1` [epinephrine hydrochloride], the solubility in “solubility in water” (water solution, hydrochloride) is 80 grams in 100 ml of water solution. For the same compound, in data set [1] (hydrochloride), the osmotic pressure is listed as 185 atmospheres.
`CNC[C@H](O)c1ccc(O)c(O)c1` [epinephrine bitartrate]: the solubility in “solubility in water” (water, solubility in water, 37° C.) turned out to be 670 mg/mL; in “solubility in water” (water, solubility, water solution), 670 mg/mL. In addition, the osmotic pressure was determined as 78.5 atmospheres in data set [1] and 78.5 ATM in data set [1] (Example 5).
In the case of `CC[C@@H]1C(=O)OC[C@@H]1Cc1cncn1C` [pilocarpine nitrate], the solubility in the data set “solubility in water” (water) is 27 grams in 100 ml of water solution; in “solubility in water” (water, solubility in water), 270 mg/mL. For the same compound, the osmotic pressure in data set [1] was 37 atmospheres; in data set [1] (Example 5), 37 ATM.
Consider `CC[C@@H]1C(=O)OC[C@@H]1Cc1cncn1C` [pilocarpine hydrochloride], for which the solubility in the data set “solubility in water” (water) is given as 80 grams in 100 ml of water solution. This compound also showed an osmotic pressure in data set [1] (hydrochloride) of 300 atmospheres.

For the origin of these results see US4190642A, “Ocular therapeutic system for dispensing a medication formulation” (Alza Corporation, priority 1979, dated 1980).
